Data set [1] has as its system Rattus norvegicus. The note with it: oral.
The test system of data set [2] is Mus musculus. The note with it: acute; oral.
For data set [3], the system named is Oryctolagus sp.
The subject of data set [4] is Rattus norvegicus.
Data set [5] concerns Rattus norvegicus. The note with it: oral; for NOAEL: M/F.
Data set [6] concerns Rattus norvegicus. The note with it: oral; for LEL / NOEL: duration: 90 days, diet.
In data set [7] the test system is Rattus norvegicus. The note with it: oral. This is another data set of the same source.
Data set [8] has as its system Anas platyrhynchos. The note with it: oral.
For data set [9], the system named is Rattus norvegicus. The note with it: repeat dose other; oral.
In data set [10] the test system is Rattus norvegicus. The note with it: short-term; duration: 20 days; oral; diet; F; musculoskeletal.
Data set [11] concerns Mus musculus. The note with it: repeat dose other; oral.
Data set [12] has as its system Rattus norvegicus. The note with it: subchronic; duration: 13 weeks; oral; gavage; M/F; Fischer 344; Histopathology: Lung-Pulmonary vasculitis Kidney-Cytomegaly/Karyomegaly, Renal tubular epithelial cell in the inner cortex.
Data set [13] concerns Mus musculus. The note with it: oral, drinking water.
For data set [14], the system named is Mus musculus. The note with it: oral, drinking water, B6C3F1, immunological.
Data set [15] relates to Rattus norvegicus. The note with it: uterotrophic, oral, Active.
Setting [16] is: subchronic, M/F, reduced hemoglobin concentration, lowered hematocrits, altered organ weight.
The mark [17] stands for this setting: subchronic, M/F, reduced weight gain, food consumption increased relative liver weight.
Where [18] appears, read: duration: 2 years, feed, M/F, Crl:CD(SD), reduced weight gain.
The mark [19] stands for this setting: short-term, duration: 20 days, M/F, rachitic bone.

For orientation: NOAEL means the highest tested level that showed no adverse finding. What is called LD50 is the dose at which mortality reaches 50%. A low value points to a more toxic substance. As a reminder, the LC50 is the concentration lethal to half of the exposed cells or organisms. As usually defined, the LOAEL is the lowest dose or exposure tested at which an adverse effect was seen.

Several values for one entry are separate records, joined by “and”; a condition that tells them apart may be missing. Equal entries are not always repeated. Where only a bound is given, the exact number is not on record here.

Take `Oc1c(Cl)cc(Cl)c2cccnc12.Oc1c(Cl)ccc2cccnc12.Oc1ccc(Cl)c2cccnc12` [Halquinols]: the NOAEL in data set [1] (chronic, duration: 1 years, Histopathological changes in the kidney) turned out to be 15 mg/kg-day.
`O=C(O)CCCCC(=O)O` [Hexanedioic acid]: the LD50 was 1900 mg/kg in data set [2]; > 7940 mg/kg in data set [3] (acute, dermal, occlusive, New Zealand); 5050 mg/kg in data set [4] (acute, oral, Sprague-Dawley). Moreover, the NOAEL in data set [3] (developmental, duration: 13 days, oral, gavage, Dutch-belted) was > 250 mg/kg-day; in data set [4] (developmental, duration: 10 days, oral, gavage, Wistar) it was > 288 mg/kg-day; in [5] (chronic, duration: 2 years, diet, albino, Whole Body Effects), 470 mg/kg-day. Also, the LC50 in data set [4] (acute, Inhalation, Sprague-Dawley) was > 7.7 µg/mL.
Turning to `CCCN(CCC)c1c([N+](=O)[O-])cc(C(C)C)cc1[N+](=O)[O-]` [Isopropalin], in data set [6] (setting [16]), the LEL came to 72 mg/kg-day and the NOEL is 15 mg/kg-day. Moreover, in data set [7] (subchronic, duration: 90 days, diet, Blood: Hematological effects + Organs, unspecified: Altered weights), the NOEL stood at 15 mg/kg-day.
For `[CH3][Hg]/[N]=C(\N)NC#N` [Methyl mercury dicyandiamide], in data set [8], the LOAEL turned out to be 0.064 mg/kg-day and the NOAEL was determined as 0.0064 mg/kg-day.
Take `C=C(C)C(=O)OC` [Methyl methacrylate]: in [6] (chronic, drinking water, M/F, no effects), the NOAEL was determined as 136 mg/kg-day. Also, the NOEL in [7] (chronic, duration: 24 months, drinking water, Kidney: Increased relative weight) was found to be 7.5 mg/kg-day.
In the case of `CNc1ccccc1` [N-Methylaniline], the NOAEL in data set [5] (short-term, duration: 28 days, gavage, CD, Hematologic, Immune) stood at 5 mg/kg-day.
For `CC(C)N(C(=O)CCl)c1ccccc1` [Propachlor], in [6] (setting [17]), the LEL was 133 mg/kg-day. Further, the NOEL was 13.3 mg/kg-day in data set [6] (setting [17]) and 13.3 mg/kg-day in data set [7] (subchronic, duration: 90 days, diet, Whole body: Decreased weight gain).
The compound `N#CCC#N` [Propanedinitrile] gave an NOAEL in data set [5] (subchronic, duration: 90 days, gavage, Crl:CD(SD) BR, hepatic) of 0.4 mg/kg-day.
Consider `[Na+].[O]=[V](=[O])[O-]` [Sodium metavanadate], for which, in [9], the LOAEL is 2.1 mg/kg-day and the NOAEL came out at 0.21 mg/kg-day. The compound further displayed an NOAEL in data set [7] (subchronic, duration: 3 months, drinking water, Kidney: Impaired function) of 1.52 mg/kg-day.
In [1] (setting [18]), `CN[C@@H]1[C@H](O[C@H]2[C@H](O[C@H]3[C@H](O)[C@@H](O)[C@H](N=C(N)N)[C@@H](O)[C@@H]3N=C(N)N)O[C@@H](C)[C@]2(O)C=O)O[C@@H](CO)[C@H](O)[C@H]1O` [Streptomycin A] returned an LOEL of 10 mg/kg-day and an NOEL of 5 mg/kg-day.
In [9], `[Cl-].[Cl-].[Sr+2]` [Strontium chloride] yielded an NOAEL of 263 mg/kg-day.
Turning to `[Sr]` [Strontium], the LOAEL in data set [6] (setting [19]) was found to be 380 mg/kg-day. The NOAEL in [6] (setting [19]) stood at 190 mg/kg-day; in [10], 140 mg/kg-day; in data set [7] (short-term, duration: 20 days, drinking water, Bone: Rachitic changes) it was 190 mg/kg-day.
In [11], `[Mo].[O-2].[O-2].[O-2].[O-2]` [Tetraoxomolybdate(2-)] registered an LOAEL of 2.6 mg/kg-day and an NOAEL of 0.26 mg/kg-day.
As to `ClC=C(Cl)Cl` [Trichloroethylene], the LOAEL in data set [11] came to 7 mg/kg-day; in [13] (chronic, duration: 30 weeks, F, Decreased thymus weight in female B6C3F1 mice) it was 0.35 mg/kg-day; in data set [13] (developmental, M/F, reduced plaque-forming cell (pfc) response, increased delayed-type hypersensitivity in b6c3f1 mice), 0.37 mg/kg-day; in data set [14] (chronic, duration: 1 years, M/F), 0.37 mg/kg-day; in data set [14] (chronic, duration: 30 weeks, F), 0.35 mg/kg-day; in data set [14] (developmental, duration: 364 days, M/F) it was 0.37 mg/kg-day. In addition, the NOAEL in data set [11] was determined as 0.7 mg/kg-day. In data set [12], this compound yielded an NOEL of 1000 mg/kg-day.
For the compound `Oc1cc(Cl)ccc1Oc1ccc(Cl)cc1Cl` [Triclosan], the LEL was 4.69 mg/kg-day and 7.5 mg/kg-day in [15] (duration: 3 days); 150 mg/kg-day in data set [15] (duration: 20 days). Moreover, in data set [7] (short-term, duration: 4 weeks, Whole body: Decreased weight), the NOEL is 500 mg/kg-day.
On to `[PH]=[Zn].[PH]=[Zn].[Zn]` [Zinc phosphide (Zn3P2)], for which the LOAEL in [6] (subchronic, F, reduced food intake and body weight) is 3.48 mg/kg-day; in data set [7] (subchronic, duration: 13 weeks, diet, Whole body: Decreased food intake + Whole body: Decreased weight), 3.48 mg/kg-day.
`CCCCCC` [n-Hexane] came in with an LOAEL in [5] (subchronic, duration: 8 weeks, gavage, M, Wistar, Nervous) of 785 mg/kg-day.

Values taken from EPA's ToxValDB 9.5.
